This is an account of results in patent US4914204A, “4-Pentafluorophenoxypiperidines” (priority 1988, dated 1990).

In test [1] the test system is mice. Description: tetrabenazine (TBZ) induced ptosis assay (antidepressant activity). In kind it is in vivo, mice (male, Charles River, CD-1).
Method: In the tetrabenazine induced ptosis assay, male mice (Charles River, CD-1), weighing 20 to 39 g, are used in test groups of five animals. Test compounds are dissolved, or suspended with 1 drop of Tween-80, in distilled water and administered to the animals in volumes of 10 cc per kg of body weight. Tetrabenazine methanesulfonate (76.78% as the free base) is dissolved in distilled water and the concentration of the solution is adjusted so that the dose, administered intraperitoneally (i.p.) to the animals, is 40 mg of tetrabenazine base per kg of animal body weight.
The test compound is administered intraperitoneally (i.p.) or perorally (p.o.) to the subject animals, and the tetrabenazine solution is administered 30 minutes or 60 minutes, respectively, thereafter. Tetrabenazine solution and the solvent used to dissolve or suspend the test compounds are administered by the same route and at the same intervals as the test compounds to a control group.
The subject animals are placed in individual plastic containers (101/2"×8"×6") thirty (i.p.) and sixty minutes (p.o.) after administration of the tetrabenazine solution, and one minute thereafter, the animals are scored for ptosis on the following scale:
The total score for each group of 5 animals will therefore vary from 0 to 20; these scores are used as the indications of the activity of the test compound.
The vehicle-control group score is used as a determination of the validity of each test.
For calculation of the ED50 value of a test compound; i.e., the calculated dose at which the test compound effects a 50% inhibition of tetrabenazine-induced ptosis, four or five doses are administered, and only vehicle-control scores of 17 to 20 are acceptable. A linear-regression analysis is used to estimate ED50 values and 95% confidence limits.
The test system of test [2] is rats. Description: L-5-hydroxytryptophan (5-HTP) potentiation assay (antidepressant activity). In kind it is in vivo, male Wistar rats.
Method: Antidepressant activity is determined by the L-5-hydroxytryptophan potentiation assay in rats described in Brit.
In the L-5-hydroxytryptophan potentiation assay groups of six male Wistar rats (150-200 grams each) are used. Pargyline hydrochloride is prepared and administered four hours before testing by subcutaneous injection at 75 mg/kg in 1% saline and a dosage volume of 1.0 ml/kg. Thirty minutes before testing, drugs are prepared and dosed using distilled water and, if insoluble, a suitable surfactant is added. Control groups receive vehicle. Drugs are routinely administered intraperitoneally at a dosage volume of 10 ml/kg. L-5-hydroxytryptophan (5-HTP) is prepared at 1.0 mg/kg in distilled water and is administered intraperioneally in volumes proportional to 10 ml/kg.
Potentiation is expressed as normalized percent potentiation relative to vehicle control. ED50 values (the calculated dose at which the test compound effects a 50% inhibition of continuous forelimb clonus) and 95% confidence limits are determined by linear analysis.
The test system of test [3] is mice. Description: phenyl-p-benzoquinone writhing assay (analgesic activity). The test is classed as in vivo, mice (male, Charles River, CD-1). Conditions: for % Inhibition of writhing: screening dose of 20 mg/kg, s.c.; for ED50: Mus musculus, sc, footnote 1 of Table 1, read-out: Analgesic Activity, ED50 (calculated dose effecting 50% inhibition of writhing).
Method: The procedure employed to determine analgetic utility is a modification of the phenyl-p-benzoquinone writhing assay in mice, a standard assay for analgesia [Proc. Soc. […] Pursuant to the modified procedure phenyl-p-benzoquinone (Eastman, 12.5 mg) is dissolved in 5 ml of 95% ethanol and the solution is diluted to a total volume of 100 ml with distilled water. The solution is administered to the subject mice intraperitoneally at a dose of 10 ml per kg of body weight. A characteristic "writhe" an inward rotation of one or more feet with twisting and turning of the trunk, drawing in of the abdominal wall, lordosis and arching of the back, is produced.
A total of 28 male mice (Charles River, CD-1), weighing 18 to 30 grams, are employed for a time response. The subject animals receive food and water ad libitum. Test compounds are dissolved in distilled water, or suspended in distilled water containing one drop of a suitable surfactant, such as Tween-80.
Four groups of five animals (20 animals) are given the test compound subcutaneously (s.c.) or orally (p.o.) at 15, 30, 45 and 60 minutes prior to administration of the phenyl-p-quinone. A control group (2 animals per group) receive an equal volume of the vehicle. After the administration of the phenyl-p-quinone, the mice are placed separately in one liter beakers, and after five minutes, are observed for ten minutes. The number of writhes for each animal is recorded. The following formula is used to compute the percent inhibition: [formula]
The time period with the greatest percent of inhibition is considered the peak time.
In test [4] the test system is spontaneous hypertensive rat. Description: antihypertensive activity, indirect tail cuff method. The settings on record: 50 mg/kg p.o.; measured on third day. In kind it is in vivo. The protocol: The compounds of this invention are also useful as antihypertensive agents due to their ability to depress blood pressure in mammals. Antihypertensive activity is measured in the spontaneous hypertensive rat by the indirect tail cuff method described in "Methods in Pharmacology", A. Schwartz, Ed., Vol. I, Appleton-Century Crofts, New York, N.Y., 1971, p. 135. In this procedure a group of five animals is treated orally for three days with the test compound in relation to a control group of the same number. The drop in blood pressure is measured on the third day following administration. The antihypertensive activities of representative compounds, expressed as a decrease in mean arterial blood pressure (in mm Hg), are given in Table 3 along with the activity of a standard compound.

In test [5] the test system is mice. Description: metrazol lethality assay (MTZ), anticonvulsant activity. In kind it is in vivo, mice (male, Charles River, CD-1).
Where [6] appears, read: Mus musculus, ip, read-out: TBZ ED50.
Where [7] appears, read: Rattus norvegicus, ip; read-out: 5-HTP ED50.
[8] abbreviates: Mus musculus, ip; read-out: TBZ ED50.
Setting [9] is: Rattus norvegicus, ip, read-out: 5-HTP ED50.

Structures can show the parent of a compound that is named as a salt. Where two headings read alike, the source gives them in different places.

As for `CN1CCC(Oc2c(F)c(F)c(F)c(F)c2F)(c2ccccc2F)CC1.O=C(O)C(=O)O` [4-(2-Fluorophenyl)-1-methyl-4-(2,3,4,5,6-pentafluorophenoxy) piperidine oxalate], the median effective dose (ED50) in test [1] (setting [6]) was determined as 3.8 mg/kg.

For the molecule `Fc1c(F)c(F)c(OC2(c3ccc(Cl)cc3)CCNCC2)c(F)c1F.O=C(O)/C=C/C(=O)O` [4-(4-Chlorophenyl)-4-(2,3,4,5,6-pentafluorophenoxy)piperidine fumarate], the ED50 in test [2] (setting [7]) was determined as 37 mg/kg; in test [1] (setting [8]), 20 mg/kg. Moreover, in test [3], the “% Inhibition of writhing” value is 66%.

For `CN1CCC(Oc2c(F)c(F)c(F)c(F)c2F)CC1` [1-methyl-4-(2,3,4,5,6-pentafluorophenoxy)piperidine], the ED50 in test [2] (setting [7]) and in test [1] (setting [8]) was 4.7 mg/kg each time.

On to `CN1CCC(Oc2c(F)c(F)c(F)c(F)c2F)(c2ccccc2)CC1.Cl` [1-methyl-4-(2,3,4,5,6-pentafluorophenoxy)-4-phenylpiperidine hydrochloride], for which the 50% effective dose (ED50) is 8.1 mg/kg in test [2] (setting [9]) and 1.3 mg/kg in test [1] (setting [6]).

On to `CN1CCC(Oc2c(F)c(F)c(F)c(F)c2F)(c2ccc(Cl)cc2)CC1.O=C(O)/C=C/C(=O)O` [4-(4-Chlorophenyl)-1-methyl-4-(2,3,4,5,6-pentafluorophenoxy)p iperidine fumarate], for which the ED50 in test [2] (setting [9]) worked out at 11.9 mg/kg; in test [1] (setting [6]) it was 38.9 mg/kg.

In the case of `CN(C)CCC=C1c2ccccc2CCc2ccccc21` [amitriptyline, reference compound], the ED50 in test [2] (setting [7]) was 7.1 mg/kg; in test [1] (setting [8]), 1.5 mg/kg.

Take `N=C(N)NCCN1CCCCCCC1` [guanethidine, reference compound]: the “SHR mm dec. in blood pressure (decrease in mean arterial blood pressure)” value in test [4] is on record as 20 mm Hg.

`Fc1ccccc1C1(Oc2c(F)c(F)c(F)c(F)c2F)CCNCC1.O=C(O)/C=C\C(=O)O` [4-(2-Fluorophenyl)-4-(2,3,4,5,6-pentafluorophenoxy)piperidine maleate]: the 50% effective dose (ED50) is under 20 mg/kg in test [2] (setting [7]) and 6.4 mg/kg in test [1] (setting [8]).

On to `CP(C)(=O)CN1CCC(Oc2c(F)c(F)c(F)c(F)c2F)CC1` [1-[(Dimethylphosphinyl)methyl]-4-(2,3,4,5,6-pentafluorophenoxy)piperdine], for which the median effective dose (ED50) in test [2] (setting [7]) amounted to 9.1 mg/kg.

As to `Cc1ccc(C2(Oc3c(F)c(F)c(F)c(F)c3F)CCNCC2)cc1.O=C(O)/C=C\C(=O)O` [4-(4-Methylphenyl)-4-(2,3,4,5,6-pentafluorophenoxy)piperidine maleate], the ED50 stood at 14.5 mg/kg in test [2] (setting [7]) and 8.3 mg/kg in test [1] (setting [8]). Besides, the “% Inhibition of writhing” value in test [3] is 56%.

As for `N#CN1CCC(Oc2c(F)c(F)c(F)c(F)c2F)(c2ccccc2)CC1` [1-Cyano-4-(2,3,4,5,6-pentafluorophenoxy)-4-phenyl piperidine], the ED50 in test [5] (Mus musculus, po) came to 55.2 mg/kg. The “% Inhibition of writhing” value in test [3] is listed as 52%.

For the molecule `Cl.Fc1ccc(C2(Oc3c(F)c(F)c(F)c(F)c3F)CCNCC2)cc1` [4-(4-Fluorophenyl)-4-(2,3,4,5,6-pentafluorophenoxy)piperidine hydrochloride], the median effective dose (ED50) in test [2] (setting [7]) is under 10 mg/kg; in test [1] (setting [8]), 4.8 mg/kg. Also, in test [3], the “% Inhibition of writhing” value turned out to be 58%.

`Cl.Fc1c(F)c(F)c(OC2CCNCC2)c(F)c1F` [4-(2,3,4,5,6-Pentafluorophenoxy)piperidine hydrochloride]: the median effective dose (ED50) in test [3] was 20 mg/kg.

Consider `Fc1c(F)c(F)c(OC2(c3ccccc3)CCNCC2)c(F)c1F.O=C(O)/C=C\C(=O)O` [4-(2,3,4,5,6-Pentafluorophenoxy)-4-phenylpiperidine maleate], for which the figures for the median effective dose (ED50) in test [2] (setting [7]) and in test [1] (setting [8]) were 14.5 mg/kg and 1 mg/kg, respectively.

As for `Cc1ccc(C2(Oc3c(F)c(F)c(F)c(F)c3F)CCN(C)CC2)cc1` [(4-(4-Methylphenyl)-1-methyl-4-(2,3,4,5,6-pentafluorophenoxy)piperidine hydrochloride], the ED50 in test [1] (setting [6]) worked out at 7 mg/kg.

With `COc1ccccc1N1CCN(CCCCN2CCC(Oc3c(F)c(F)c(F)c(F)c3F)CC2)CC1` [1-{4-[1-[4-(2-Methoxyphenyl)piperazin-1-yl]butyl]}-4-(2,3,4,5,6-pentafluorophenoxy)piperidine dioxalate], in test [3], the ED50 is 19 mg/kg.

With `Cl.Fc1ccc2c(CCCN3CCC(Oc4c(F)c(F)c(F)c(F)c4F)CC3)noc2c1` [1-[(6-Fluoro-1,2-benzisoxazol-3-yl)propyl]-4-(2,3,4,5,6-pentafluorophenoxy)piperidine hydrochloride], in test [4], the “SHR mm dec. in blood pressure (decrease in mean arterial blood pressure)” value was found to be 62 mm Hg.

On to `COc1ccc(C2(Oc3c(F)c(F)c(F)c(F)c3F)CCN(C)CC2)cc1.Cl` [4-(4-Methoxyphenyl)-1-methyl-4-(2,3,4,5,6-pentafluorophenoxy) piperidine hydrochloride], for which the “% Inhibition of writhing” value in test [3] is recorded as 53%.

On to `CN1CCC(Oc2c(F)c(F)c(F)c(F)c2F)(c2ccc(F)cc2)CC1.Cl` [4-(4-Fluorophenyl)-1-methyl-4-(2,3,4,5,6-pentafluorophenoxy)p iperidine hydrochloride], for which the results for the ED50 in test [2] (setting [9]) and in test [1] (setting [6]) were 7 mg/kg and 5.4 mg/kg, respectively. The “Percent inhibition of Metrazol lethality” value in test [5] (30 mg/kg i.p., footnote 2 of Table 2) is recorded as 80%. The “% Inhibition of writhing” value in test [3] is reported as 49%.

As for `Fc1c(F)c(F)c(OC2(c3ccccc3)CCN(Cc3ccccc3)CC2)c(F)c1F` [1-Benzyl-4-(2,3,4,5,6-pentafluorophenoxy)-4-phenyl piperidine], the “SHR mm dec. in blood pressure (decrease in mean arterial blood pressure)” value in test [4] is listed as 40 mm Hg.

One may read the ED50 as the midpoint of the dose-response relation.
